Measurements as given in PMC5762315, “Inhibition of polo-like kinase 4 (PLK4): a new therapeutic option for rhabdoid tumors and pediatric medulloblastoma” (Oncotarget, 2017).
Values joined by “and” are separate entries in the source; they are usually repeats but may differ in a detail not shown here. Equal values may be shown once.

What was measured:
Test in all cases: biochemical
Type in all cases: biochemical
various kinases [1] = target: various kinases (Homo sapiens, UniProt O15264); details: MAPK13 (p38 delta)
various kinases [2] = target: T1, various kinases (Homo sapiens, UniProt O94806); details: kinase PRKCN (PKD3); ZLYTE
T1 sequence (O94806 1-890): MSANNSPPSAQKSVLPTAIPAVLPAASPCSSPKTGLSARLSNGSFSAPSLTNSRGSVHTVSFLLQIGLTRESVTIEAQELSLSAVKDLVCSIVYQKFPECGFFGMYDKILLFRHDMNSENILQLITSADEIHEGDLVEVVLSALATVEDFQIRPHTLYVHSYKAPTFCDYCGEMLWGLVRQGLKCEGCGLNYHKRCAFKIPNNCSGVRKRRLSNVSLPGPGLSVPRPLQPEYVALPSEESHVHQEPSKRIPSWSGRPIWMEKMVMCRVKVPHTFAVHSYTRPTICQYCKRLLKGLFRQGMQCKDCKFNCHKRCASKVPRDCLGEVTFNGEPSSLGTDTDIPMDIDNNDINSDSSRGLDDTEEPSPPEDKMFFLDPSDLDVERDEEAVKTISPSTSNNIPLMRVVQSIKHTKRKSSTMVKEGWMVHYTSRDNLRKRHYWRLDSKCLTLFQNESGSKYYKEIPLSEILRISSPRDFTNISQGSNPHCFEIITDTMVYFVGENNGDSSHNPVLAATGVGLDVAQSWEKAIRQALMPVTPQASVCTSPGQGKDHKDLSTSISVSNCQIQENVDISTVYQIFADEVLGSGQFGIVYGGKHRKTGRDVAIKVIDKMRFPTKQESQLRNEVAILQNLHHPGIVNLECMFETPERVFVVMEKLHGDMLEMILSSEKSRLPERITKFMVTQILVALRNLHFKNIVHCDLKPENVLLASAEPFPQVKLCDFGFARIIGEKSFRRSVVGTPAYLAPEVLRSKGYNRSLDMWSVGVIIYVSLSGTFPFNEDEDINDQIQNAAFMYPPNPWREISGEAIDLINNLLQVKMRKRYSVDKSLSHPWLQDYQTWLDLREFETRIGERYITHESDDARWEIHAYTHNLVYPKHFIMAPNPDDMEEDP

various kinases [3] = target: various kinases (Homo sapiens, UniProt P04049, Y340D/Y341D); details: kinase RAF1 (cRAF) Y340D Y341D; ZLYTE
various kinases [4] = target: various kinases (Homo sapiens, UniProt P06241); details: FYN
various kinases [5] = target: T2, various kinases (Homo sapiens, UniProt P43403); details: kinase ZAP70; ZLYTE
T2 sequence (P43403 1-619): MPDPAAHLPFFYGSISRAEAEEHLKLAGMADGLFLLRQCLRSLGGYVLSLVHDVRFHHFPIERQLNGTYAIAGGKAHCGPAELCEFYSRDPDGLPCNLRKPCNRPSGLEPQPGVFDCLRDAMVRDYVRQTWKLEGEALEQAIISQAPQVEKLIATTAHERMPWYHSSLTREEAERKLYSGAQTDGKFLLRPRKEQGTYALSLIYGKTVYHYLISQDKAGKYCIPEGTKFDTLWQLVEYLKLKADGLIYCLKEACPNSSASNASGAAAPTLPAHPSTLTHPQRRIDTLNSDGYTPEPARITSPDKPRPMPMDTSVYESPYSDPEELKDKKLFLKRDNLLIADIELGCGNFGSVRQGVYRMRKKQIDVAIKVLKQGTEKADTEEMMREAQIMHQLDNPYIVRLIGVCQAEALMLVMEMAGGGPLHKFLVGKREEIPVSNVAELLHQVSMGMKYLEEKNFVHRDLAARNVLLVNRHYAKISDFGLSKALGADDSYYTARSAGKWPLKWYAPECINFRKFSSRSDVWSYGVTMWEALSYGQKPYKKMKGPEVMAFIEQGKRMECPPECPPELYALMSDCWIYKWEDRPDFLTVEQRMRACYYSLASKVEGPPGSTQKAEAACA

various kinases [6] = target: various kinases (Homo sapiens, UniProt P45983); details: MAPK8 (JNK1)
various kinases [7] = target: various kinases (Homo sapiens, UniProt P45984); details: MAPK9 (JNK2)
various kinases [8] = target: various kinases (Homo sapiens, UniProt P51957); details: NEK4
various kinases [9] = target: various kinases (Homo sapiens, UniProt P54646)
various kinases [10] = target: T3, various kinases (Homo sapiens, UniProt Q05513); details: kinase PRKCZ (PKC zeta); ZLYTE
T3 sequence (Q05513 1-592): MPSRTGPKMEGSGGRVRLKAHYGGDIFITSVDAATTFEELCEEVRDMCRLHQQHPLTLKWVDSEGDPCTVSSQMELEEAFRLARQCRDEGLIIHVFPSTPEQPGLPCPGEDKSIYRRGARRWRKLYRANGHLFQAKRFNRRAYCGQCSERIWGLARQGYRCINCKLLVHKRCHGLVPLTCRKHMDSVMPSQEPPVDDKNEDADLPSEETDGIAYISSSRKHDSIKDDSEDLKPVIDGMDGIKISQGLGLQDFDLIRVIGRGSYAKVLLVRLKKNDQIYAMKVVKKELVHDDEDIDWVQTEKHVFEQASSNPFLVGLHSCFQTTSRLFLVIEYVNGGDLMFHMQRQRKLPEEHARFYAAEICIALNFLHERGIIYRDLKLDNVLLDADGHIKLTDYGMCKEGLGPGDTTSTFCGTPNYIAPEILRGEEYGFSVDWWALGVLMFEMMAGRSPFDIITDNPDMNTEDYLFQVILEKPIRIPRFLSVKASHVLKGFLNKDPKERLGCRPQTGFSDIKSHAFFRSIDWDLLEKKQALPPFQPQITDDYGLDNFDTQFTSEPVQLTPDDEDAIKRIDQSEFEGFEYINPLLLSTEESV

various kinases [11] = target: various kinases (Homo sapiens, UniProt Q9HCP0); details: CSNK1G1 (CK1 gamma 1)
various kinases [12] = target: various kinases (Homo sapiens, UniProt Q9NR20); details: DYRK4
Throughout, for % Inhibition Average: test concentration or dose not given here.
Throughout, for % Inhibition Duplicate #1: test concentration or dose not given here.
Throughout, for % Inhibition Duplicate #2: test concentration or dose not given here.

Sequence of various kinases (Homo sapiens, UniProt P54646) (P54646 whole entry): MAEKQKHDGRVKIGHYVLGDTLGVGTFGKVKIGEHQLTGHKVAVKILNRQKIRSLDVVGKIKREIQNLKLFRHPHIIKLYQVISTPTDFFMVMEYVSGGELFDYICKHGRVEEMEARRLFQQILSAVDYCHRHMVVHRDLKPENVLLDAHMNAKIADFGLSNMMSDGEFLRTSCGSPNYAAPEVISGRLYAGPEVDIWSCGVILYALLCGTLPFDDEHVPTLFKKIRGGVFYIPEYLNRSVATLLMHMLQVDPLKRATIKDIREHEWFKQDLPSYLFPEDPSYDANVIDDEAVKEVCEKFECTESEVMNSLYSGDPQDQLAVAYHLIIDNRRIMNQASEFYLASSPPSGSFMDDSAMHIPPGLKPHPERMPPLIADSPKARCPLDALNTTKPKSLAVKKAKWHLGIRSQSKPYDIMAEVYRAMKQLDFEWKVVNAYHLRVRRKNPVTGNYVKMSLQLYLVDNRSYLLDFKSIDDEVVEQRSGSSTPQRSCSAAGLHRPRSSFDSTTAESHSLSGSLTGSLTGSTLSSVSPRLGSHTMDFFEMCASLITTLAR
Sequence of various kinases (Homo sapiens, UniProt P04049, Y340D/Y341D) (P04049 whole entry Y340D/Y341D): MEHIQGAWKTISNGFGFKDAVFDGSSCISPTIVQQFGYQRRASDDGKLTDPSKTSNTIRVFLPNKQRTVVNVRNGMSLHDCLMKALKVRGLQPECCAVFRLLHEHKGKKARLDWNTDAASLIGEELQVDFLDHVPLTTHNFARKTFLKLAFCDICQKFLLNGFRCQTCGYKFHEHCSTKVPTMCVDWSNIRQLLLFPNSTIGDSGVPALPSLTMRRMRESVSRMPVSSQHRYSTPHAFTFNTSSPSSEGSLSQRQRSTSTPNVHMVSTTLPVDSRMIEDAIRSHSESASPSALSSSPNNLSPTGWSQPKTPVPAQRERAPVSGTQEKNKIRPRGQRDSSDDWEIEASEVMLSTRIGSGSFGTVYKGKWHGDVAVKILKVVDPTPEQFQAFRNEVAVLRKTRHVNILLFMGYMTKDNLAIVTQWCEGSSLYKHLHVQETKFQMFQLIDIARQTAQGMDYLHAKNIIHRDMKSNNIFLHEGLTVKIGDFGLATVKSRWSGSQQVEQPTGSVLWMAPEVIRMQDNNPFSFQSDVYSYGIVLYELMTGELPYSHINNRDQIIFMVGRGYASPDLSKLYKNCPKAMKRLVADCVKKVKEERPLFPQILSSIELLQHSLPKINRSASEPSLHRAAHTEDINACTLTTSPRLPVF
Sequence of various kinases (Homo sapiens, UniProt Q9HCP0) (Q9HCP0 whole entry): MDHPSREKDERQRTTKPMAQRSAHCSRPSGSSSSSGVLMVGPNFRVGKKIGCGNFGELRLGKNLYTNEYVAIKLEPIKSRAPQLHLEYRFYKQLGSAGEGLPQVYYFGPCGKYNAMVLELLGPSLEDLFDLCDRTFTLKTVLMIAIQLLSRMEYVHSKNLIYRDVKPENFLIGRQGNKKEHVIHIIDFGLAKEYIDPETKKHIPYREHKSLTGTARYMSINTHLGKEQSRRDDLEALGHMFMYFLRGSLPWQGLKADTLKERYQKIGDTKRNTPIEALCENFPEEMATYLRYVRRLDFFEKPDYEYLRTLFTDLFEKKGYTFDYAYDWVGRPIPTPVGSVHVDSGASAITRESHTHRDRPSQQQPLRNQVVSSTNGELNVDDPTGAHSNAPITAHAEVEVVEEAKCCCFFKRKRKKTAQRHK
Sequence of various kinases (Homo sapiens, UniProt P45984) (P45984 whole entry): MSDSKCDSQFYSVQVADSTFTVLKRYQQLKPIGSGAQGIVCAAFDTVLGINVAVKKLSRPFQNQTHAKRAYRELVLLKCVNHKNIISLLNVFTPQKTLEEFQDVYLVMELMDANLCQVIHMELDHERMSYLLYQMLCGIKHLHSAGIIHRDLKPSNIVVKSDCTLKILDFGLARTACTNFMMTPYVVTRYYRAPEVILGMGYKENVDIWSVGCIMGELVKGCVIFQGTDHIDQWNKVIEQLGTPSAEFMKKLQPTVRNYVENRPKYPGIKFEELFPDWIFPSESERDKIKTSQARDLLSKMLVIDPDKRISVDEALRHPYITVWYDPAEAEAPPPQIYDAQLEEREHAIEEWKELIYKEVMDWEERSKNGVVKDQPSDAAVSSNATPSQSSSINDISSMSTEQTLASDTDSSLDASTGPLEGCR
Sequence of various kinases (Homo sapiens, UniProt P06241) (P06241 whole entry): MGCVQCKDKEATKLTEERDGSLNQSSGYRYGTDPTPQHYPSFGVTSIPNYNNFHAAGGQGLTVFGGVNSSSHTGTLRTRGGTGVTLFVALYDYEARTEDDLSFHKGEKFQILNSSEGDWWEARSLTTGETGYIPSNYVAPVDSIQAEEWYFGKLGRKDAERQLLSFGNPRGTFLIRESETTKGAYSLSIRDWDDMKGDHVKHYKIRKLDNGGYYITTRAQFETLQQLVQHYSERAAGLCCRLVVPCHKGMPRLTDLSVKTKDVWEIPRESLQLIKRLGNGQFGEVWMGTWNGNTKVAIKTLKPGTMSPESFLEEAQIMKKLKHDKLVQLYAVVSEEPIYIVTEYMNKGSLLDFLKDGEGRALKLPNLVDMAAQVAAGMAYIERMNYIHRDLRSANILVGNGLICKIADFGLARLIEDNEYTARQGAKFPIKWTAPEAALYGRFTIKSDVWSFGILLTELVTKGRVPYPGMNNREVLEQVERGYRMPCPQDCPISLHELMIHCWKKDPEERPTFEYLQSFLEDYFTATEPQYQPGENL
Sequence of various kinases (Homo sapiens, UniProt O15264) (O15264 whole entry): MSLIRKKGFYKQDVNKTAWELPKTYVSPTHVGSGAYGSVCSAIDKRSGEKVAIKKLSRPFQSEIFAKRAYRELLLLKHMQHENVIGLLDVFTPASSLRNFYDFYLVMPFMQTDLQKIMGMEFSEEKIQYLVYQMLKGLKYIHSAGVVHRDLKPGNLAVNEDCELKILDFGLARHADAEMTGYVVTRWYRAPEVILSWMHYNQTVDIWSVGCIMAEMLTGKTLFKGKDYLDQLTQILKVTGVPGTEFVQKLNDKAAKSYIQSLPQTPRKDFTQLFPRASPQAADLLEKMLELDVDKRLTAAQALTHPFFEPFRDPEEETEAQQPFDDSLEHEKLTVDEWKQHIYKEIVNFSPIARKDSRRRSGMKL
Sequence of various kinases (Homo sapiens, UniProt Q9NR20) (Q9NR20 whole entry): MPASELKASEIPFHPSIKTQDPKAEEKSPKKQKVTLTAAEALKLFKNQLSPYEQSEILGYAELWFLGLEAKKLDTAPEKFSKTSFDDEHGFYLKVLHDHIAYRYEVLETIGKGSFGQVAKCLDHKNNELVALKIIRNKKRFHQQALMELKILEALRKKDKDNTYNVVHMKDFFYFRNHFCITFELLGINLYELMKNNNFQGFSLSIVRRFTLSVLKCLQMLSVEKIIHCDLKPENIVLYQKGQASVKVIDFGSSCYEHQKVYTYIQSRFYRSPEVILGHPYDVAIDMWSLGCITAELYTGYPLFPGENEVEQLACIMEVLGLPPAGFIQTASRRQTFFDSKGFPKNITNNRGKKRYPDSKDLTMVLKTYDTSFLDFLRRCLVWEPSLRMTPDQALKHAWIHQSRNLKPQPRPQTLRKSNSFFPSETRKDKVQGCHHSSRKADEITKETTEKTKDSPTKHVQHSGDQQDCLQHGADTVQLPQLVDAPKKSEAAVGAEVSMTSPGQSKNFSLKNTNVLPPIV
Sequence of various kinases (Homo sapiens, UniProt P51957) (P51957 whole entry): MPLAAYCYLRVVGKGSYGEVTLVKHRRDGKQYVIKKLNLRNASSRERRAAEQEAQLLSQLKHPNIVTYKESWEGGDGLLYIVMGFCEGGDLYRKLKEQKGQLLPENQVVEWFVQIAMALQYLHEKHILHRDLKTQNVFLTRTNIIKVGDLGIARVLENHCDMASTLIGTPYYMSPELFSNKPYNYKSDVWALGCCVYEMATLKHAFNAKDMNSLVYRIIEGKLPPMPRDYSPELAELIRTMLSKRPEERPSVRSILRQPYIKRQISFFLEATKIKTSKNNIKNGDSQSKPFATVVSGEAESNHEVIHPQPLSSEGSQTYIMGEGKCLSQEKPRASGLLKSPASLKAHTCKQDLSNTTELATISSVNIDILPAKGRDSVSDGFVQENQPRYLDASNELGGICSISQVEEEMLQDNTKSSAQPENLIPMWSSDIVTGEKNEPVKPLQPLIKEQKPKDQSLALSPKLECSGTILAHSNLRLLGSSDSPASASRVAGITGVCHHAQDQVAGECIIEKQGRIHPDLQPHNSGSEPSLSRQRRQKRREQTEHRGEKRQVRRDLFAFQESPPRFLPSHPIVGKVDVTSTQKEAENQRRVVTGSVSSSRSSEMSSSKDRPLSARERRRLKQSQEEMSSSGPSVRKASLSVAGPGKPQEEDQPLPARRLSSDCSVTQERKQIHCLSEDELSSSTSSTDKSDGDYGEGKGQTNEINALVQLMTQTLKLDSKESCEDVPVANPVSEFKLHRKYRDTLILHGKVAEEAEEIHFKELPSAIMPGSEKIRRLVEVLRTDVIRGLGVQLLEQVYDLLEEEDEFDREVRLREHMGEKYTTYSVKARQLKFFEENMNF
Sequence of various kinases (Homo sapiens, UniProt P45983) (P45983 whole entry): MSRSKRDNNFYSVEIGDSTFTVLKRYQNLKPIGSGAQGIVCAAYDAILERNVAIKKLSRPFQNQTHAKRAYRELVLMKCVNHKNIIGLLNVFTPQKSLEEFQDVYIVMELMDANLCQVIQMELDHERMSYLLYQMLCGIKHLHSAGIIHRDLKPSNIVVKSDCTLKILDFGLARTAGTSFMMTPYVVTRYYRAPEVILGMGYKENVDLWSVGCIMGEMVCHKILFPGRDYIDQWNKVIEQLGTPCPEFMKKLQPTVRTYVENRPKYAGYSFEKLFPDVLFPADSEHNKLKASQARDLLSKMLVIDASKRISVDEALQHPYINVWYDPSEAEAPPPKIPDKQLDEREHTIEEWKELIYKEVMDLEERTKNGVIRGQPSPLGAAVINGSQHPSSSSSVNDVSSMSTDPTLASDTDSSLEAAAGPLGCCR

COc1ccc2c(c1)[C@]1(C[C@H]1c1ccc3c(/C=C/c4ccc(CN5C[C@@H](C)O[C@@H](C)C5)cc4)n[nH]c3c1)C(=O)N2 [CFI-400945]
% Inhibition (various kinases [1]): 1% and 4% | % Inhibition Average (various kinases [2]): 4% | % Inhibition Duplicate #1 (various kinases [2]): 3% | % Inhibition Duplicate #2 (various kinases [2]): 4% | % Inhibition Average (various kinases [3]): 12% | % Inhibition Duplicate #1 (various kinases [3]): 10% | % Inhibition Duplicate #2 (various kinases [3]): 14% | % Inhibition (various kinases [4]): 6% and 5% | % Inhibition Average (various kinases [5]): 2% | % Inhibition Duplicate #1 (various kinases [5]): 0% | % Inhibition Duplicate #2 (various kinases [5]): 4% | % Inhibition (various kinases [6]): -3% and -1% | % Inhibition (various kinases [7]): 9% and -1% | % Inhibition (various kinases [8]): 3% and 1% | % Inhibition (various kinases [9]; AMPK (A2/B1/G2)): 27% and 22% | % Inhibition (various kinases [9]; AMPK (A2/B1/G3)): 9% and 15% | % Inhibition (various kinases [9]; AMPK (A2/B2/G3)): 9% and 10% | % Inhibition (various kinases [9]; AMPK A2/B1/G1): 5% and 6% | % Inhibition Average (various kinases [10]): -11% | % Inhibition Duplicate #1 (various kinases [10]): -22% | % Inhibition Duplicate #2 (various kinases [10]): 0% | % Inhibition (various kinases [11]): -1% and 3% | % Inhibition (various kinases [12]): 3% and 2%
